Biological target: T1, Miro2 (Homo sapiens, UniProt Q8IXI1)
T1 construct: Miro1 Reducer had no influence on Miro2 in either healthy or PD cells; endogenous in cells; host or cells: human skin fibroblasts (Healthy-1, PD-2)
Assay: Miro2 response to CCCP in fibroblasts, Western blotting
Format: cell-based
Conditions: healthy or PD cells, CCCP 6 hrs
Procedure: FIG. 2A-FIG. 2F. Miro1 Reducer Eliminates the Miro1 Defect in PD Fibroblasts. (FIG. 2A) Chemical properties of Miro1 Reducer. (FIG. 2B) Wild-type flies (w^1118) were fed with DMSO alone (0 μM Miro1 Reducer) or Miro1 Reducer in DMSO at 250 μM for 7 days, and lysed and blotted as indicated. The band intensities are normalized to those of Tubulin from the same blots. n=4. (FIG. 2C-FIG. 2E) Fibroblasts were treated, lysed, and blotted as indicated. (FIG. 2C) Band intensities are normalized to those of GAPDH from the same blots and compared to “Healthy-1, no treatment” except otherwise indicated. n=4. (FIG. 2D) Band intensities are normalized to those of ATP5β from the same blots and expressed as a percentage of the mean of “0 μM Miro1 Reducer with CCCP”. Mean±S.E.M is shown. n=3. (FIG. 2E) Band intensities are normalized to those of GAPDH from the same blots and compared to “Healthy-1, no CCCP, no MG132” except otherwise indicated. n=4. (FIG. 2F) Healthy-1 and PD-2 fibroblasts were transfected as indicated, and immunostained with anti-Myc (Miro1, green) and stained with Dapi (blue). The Miro1 intensity is normalized to that of mito-dsRed from the same cell and quantified across 37-62 cells from 5 fields each transfection, 3 independent transfections. Scale bars: 50 μm. For (FIG. 2C-FIG. 2F), both CCCP and Miro1 Reducer were dissolved in DMSO. […]

T1 sequence (Q8IXI1 whole entry): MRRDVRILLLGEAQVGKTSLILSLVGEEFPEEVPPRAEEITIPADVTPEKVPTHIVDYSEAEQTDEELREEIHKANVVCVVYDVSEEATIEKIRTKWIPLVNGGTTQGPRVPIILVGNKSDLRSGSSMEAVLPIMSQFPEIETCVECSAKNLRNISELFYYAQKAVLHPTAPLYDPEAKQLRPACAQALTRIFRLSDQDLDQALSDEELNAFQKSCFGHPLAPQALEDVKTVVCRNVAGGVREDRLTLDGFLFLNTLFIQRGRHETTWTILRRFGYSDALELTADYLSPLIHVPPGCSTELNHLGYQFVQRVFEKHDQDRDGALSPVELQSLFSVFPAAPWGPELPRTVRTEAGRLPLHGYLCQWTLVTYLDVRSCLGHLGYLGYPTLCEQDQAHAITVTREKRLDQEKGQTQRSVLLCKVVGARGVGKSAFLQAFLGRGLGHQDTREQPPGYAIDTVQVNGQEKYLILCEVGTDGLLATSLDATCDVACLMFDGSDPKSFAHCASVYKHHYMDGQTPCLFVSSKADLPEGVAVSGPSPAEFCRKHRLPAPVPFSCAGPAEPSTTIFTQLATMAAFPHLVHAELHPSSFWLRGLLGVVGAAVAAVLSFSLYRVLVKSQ

SMILES: O=C(Nc1ccc(Nc2cc(-n3ccnc3)ncn2)cc1)Nc1cccc(F)c1 [Miro1 Reducer]
- influence on Miro2: no influence

— US12544375B2, “Small molecule therapeutic for parkinson's disease paired with a biomarker of therapeutic activity” (The Board of Trustees of the Leland Stanford Junior …, priority 2019, dated 2026)
